From patent publication US10448639B2, “Fungicidal pyrazoles” (FMC CORPORATION, priority 2009, dated 2019)
Marks after values point to notes of the source that are not given here.

What was measured:
Alternaria solani = experiment: Test C: tomato early blight, preventive spray on tomato seedlings, visual disease rating; conditions: tomato early blight
Septoria tritici = experiment: Test G: wheat leaf blotch, preventive spray on wheat seedlings, visual disease rating; conditions: wheat leaf blotch
[1] = test system: Puccinia recondita f. sp. tritici; experiment: Test H: wheat leaf rust, curative spray on inoculated wheat seedlings, visual disease rating; conditions: wheat leaf rust
Septoria nodorum = experiment: Test F: Septoria glume blotch, preventive spray on wheat seedlings, visual disease rating
[2] = test system: Puccinia recondita f. sp. tritici; experiment: Test I: wheat leaf rust, preventive spray on wheat seedlings, visual disease rating; conditions: wheat leaf rust
[3] = test system: Erysiphe graminis f sp. tritici; experiment: Test J: wheat powdery mildew, preventive spray on wheat seedlings, visual disease rating; conditions: wheat powdery mildew
Botrytis cinerea = experiment: Test B: tomato Botrytis, preventive spray on tomato seedlings, visual disease rating; conditions: tomato Botrytis
[4] = 100 = 100% disease control, 0 = no control relative to controls
[5] = curative, 100 = 100% disease control, 0 = no control relative to controls
[6] = Septoria glume blotch, 100 = 100% disease control, 0 = no control relative to controls
[7] = preventive, 100 = 100% disease control, 0 = no control relative to controls
[8] = preventive spray, 100 = 100% disease control, 0 = no control
[9] = curative spray, 100 = 100% disease control, 0 = no control
[10] = Septoria glume blotch on wheat, preventive spray, 100 = 100% disease control, 0 = no control
[11] = 100 = 100% disease control, 0 = no disease control relative to controls
[12] = sprayed the day before inoculation, 100 = 100% disease control, 0 = no disease control relative to controls
[13] = preventive spray, rating marked with asterisk (different test condition, key not given)

Compound | Test C rating (% disease control) (Alternaria solani; [4]) | Test G rating (% disease control) (Septoria tritici; [4]) | Test H rating (% disease control) [1, 5] | Test F rating (% disease control) (Septoria nodorum; [6]) | Test I rating (% disease control) [2, 7] | Test J rating (% disease control) [3, 4] | Test B rating (% disease control) (Botrytis cinerea; [4]) | Test C rating (% disease control) (Alternaria solani; [8]) | Test G rating (% disease control) (Septoria tritici; [8]) | Test H rating (% disease control) [1, 9] | Test F rating (% disease control) (Septoria nodorum; [10]) | Test I rating (% disease control) [2, 8] | Test J rating (% disease control) [3, 8] | Test B rating (% disease control) (Botrytis cinerea; [8]) | also measured
COc1cc(F)c(-c2c(C)nn(C)c2Oc2ccc(Cl)c(C)c2)c(F)c1 [compound 185] | 0% | 100% | 0% | 0% | 74% | 98% | 0% |  |  |  |  |  |  |  | 
Cc1nn(C)c(Nc2c(F)cc(F)cc2F)c1-c1c(F)cccc1Cl [compound 191] | 100% | 100% | 0% | 0% | 97% | 99% | 98% |  |  |  |  |  |  |  | 
Cc1nn(C)c(Nc2cccc(Cl)c2Cl)c1-c1c(F)cc(C#N)cc1F [compound 147] |  |  |  |  |  |  |  | 88% | 100% | 0% | 100% | 98% | 92% | 99% | 
COc1cc(F)c(Nc2c(-c3ccc(Cl)cc3)c(C)nn2C)c(F)c1 [compound 29] |  |  |  |  |  |  |  | 0% | 98% | 0% | 0% | 46% | 0% | 94% | 
Cc1nn(C)c(Nc2ccc(Cl)cc2F)c1-c1c(F)cc(C#N)cc1F [compound 143] |  |  |  |  |  |  |  | 99% | 100% | 63% | 100% | 100% | 100% | 99% | 
Cc1nn(C)c(Nc2ccc(Br)cc2F)c1-c1ccc(F)cc1Cl [compound 366] |  |  |  |  |  |  |  |  |  |  |  |  |  |  | Test C disease control rating (Alternaria solani; [11]): 58%; Test G disease control rating (Septoria tritici; [12]): 100%; Test H disease control rating ([1]; sprayed after inoculation, 100 = 100% disease control, 0 = no disease control relative to controls): 9%; Test F disease control rating (Septoria nodorum; Septoria glume blotch on wheat, 100 = 100% disease control, 0 = no disease control relative to controls): 0%; Test I disease control rating [2, 12]: 99%; Test J disease control rating [3, 12]: 100%; Test B disease control rating (Botrytis cinerea; [11]): 100%
Cc1nn(C)c(Oc2c(F)cc(C#N)cc2F)c1-c1cc(Cl)ccc1Cl [compound 275] | 46% | 99% | 8% | 0% | 97% | 99% | 97% |  |  |  |  |  |  |  | 
CCN(c1c(F)cc(OC)cc1F)c1c(-c2ccc(F)cc2Cl)c(C)nn1C [compound 158] | 0% | 99% | 18% | 0% | 99% | 98% | 100% |  |  |  |  |  |  |  | 
Cc1nn(C)c(Nc2ncc(Cl)cc2Cl)c1-c1ccccc1C(F)(F)F [compound 251] | 0% | 98% | 0% | 0% | 86% | 100% | 99% |  |  |  |  |  |  |  | 
COc1cc(F)c(Nc2c(-c3c(F)cccc3C(F)(F)F)c(C)nn2C)c(F)c1 [compound 263] | 98% | 100% | 0% | 0% | 98% | 100% | 100% |  |  |  |  |  |  |  | 
COc1cc(F)c(Nc2c(-c3c(F)cc(F)cc3F)c(C)nn2C)c(F)c1 [compound 78] |  |  |  |  |  |  |  | 82% | 98% | 0% | 0% | 89% | 91% | 99% | 
CC(=O)Nc1ccc(Oc2c(-c3ccc(F)cc3Cl)c(C)nn2C)c(F)c1 [compound 71] |  |  |  |  |  |  |  | 0% | 96% | 0% | 0% | 91% | 67% | 93% | 
COc1cc(F)c(-c2c(C)nn(C)c2Oc2ccc(C)c(OC)c2)c(F)c1 [compound 249] | 0% | 99% | 0% | 0% | 96% | 100% | 40% |  |  |  |  |  |  |  | 
Cc1nn(C)c(Oc2ccc([N+](=O)[O-])cc2Cl)c1-c1ccc(F)cc1Cl [compound 119] |  |  |  |  |  |  |  | 0% | 100% | 16% | 0% | 99% | 96% | 100% | 
COc1cc(F)c(-c2c(C)nn(C)c2Nc2ccc(Cl)nc2)c(F)c1 [compound 34] |  |  |  |  |  |  |  |  |  |  |  |  |  |  | Test C rating (% disease control), value marked * (Alternaria solani; [13]): 97* %; Test G rating (% disease control), value marked * (Septoria tritici; [13]): 96* %; Test H rating (% disease control), value marked * ([1]; curative spray, rating marked with asterisk (different test condition, key not given)): 0* %; Test F rating (% disease control), value marked * (Septoria nodorum; Septoria glume blotch, preventive spray, rating marked with asterisk (different test condition, key not given)): 0* %; Test I rating (% disease control), value marked * [2, 13]: 76* %; Test J rating (% disease control), value marked * [3, 13]: 0* %; Test B rating (% disease control), value marked * (Botrytis cinerea; [13]): 100* %
Cc1nn(C)c(Oc2ccc(Cl)cc2)c1-c1c(F)cc(F)cc1F [compound 27] |  |  |  |  |  |  |  | 88% | 95% | 0% | 0% | 25% | 87% | 99% | 
Cc1nn(C)c(Oc2cc(F)c(C#N)cc2F)c1-c1c(F)cc(F)cc1F [compound 99] |  |  |  |  |  |  |  | 99% | 99% | 40% | 100% | 100% | 100% | 100% | 
